Tests used:
Collagenase 3 = Collagenase 3 (Homo sapiens, UniProt P45452); assay: Inhibition of human recombinant MMP13
[1] = Metabolic stability in C57BL/6 mouse liver microsome assessed as half life; type: ADME; conditions: liver microsomes
in vitro [2] = conditions: rat, liver microsomes
in vitro [3] = conditions: human, liver microsomes
[4] = biological target: Macrophage metalloelastase MMP-12 (Homo sapiens) (UniProt P39900); assay: Inhibition of MMP12
[5] = Volume of distribution at steady state in C57BL/6 mouse at 2 mg/kg, iv; type: ADME, organism-based; parameters: dose 2 mg/kg, route intravenous; conditions: in vivo, read-out: Vdss
[6] = Clearance in C57BL/6 mouse at 2 mg/kg, iv; type: ADME, organism-based; parameters: dose 2 mg/kg, route intravenous; conditions: in vivo
[7] = Half life in C57BL/6 mouse at 30 mg/kg, po; type: ADME, organism-based; parameters: dose 30 mg/kg, route oral; conditions: in vivo
[8] = Cmax in C57BL/6 mouse at 30 mg/kg, po; type: ADME, organism-based; parameters: dose 30 mg/kg, route oral; conditions: in vivo
[9] = Oral bioavailability in C57BL/6 mouse at 30 mg/kg; type: ADME, organism-based; conditions: in vivo

Macrophage metalloelastase MMP-12 (Homo sapiens), sequence (P39900 whole entry, looked up): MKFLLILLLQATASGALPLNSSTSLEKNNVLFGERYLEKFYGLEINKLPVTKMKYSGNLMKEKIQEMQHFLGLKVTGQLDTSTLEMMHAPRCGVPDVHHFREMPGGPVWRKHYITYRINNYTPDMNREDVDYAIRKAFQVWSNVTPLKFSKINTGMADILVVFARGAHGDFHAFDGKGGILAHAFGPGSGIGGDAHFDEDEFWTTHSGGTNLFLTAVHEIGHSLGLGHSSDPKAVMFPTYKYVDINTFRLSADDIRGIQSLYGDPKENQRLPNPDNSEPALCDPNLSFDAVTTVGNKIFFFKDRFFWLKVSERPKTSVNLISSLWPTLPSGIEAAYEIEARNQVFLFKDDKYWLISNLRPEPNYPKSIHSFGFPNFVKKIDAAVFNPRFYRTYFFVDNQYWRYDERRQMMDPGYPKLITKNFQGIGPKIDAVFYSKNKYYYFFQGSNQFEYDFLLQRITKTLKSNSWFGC

Row | Compound | IC50 (Collagenase 3) [nM] | half-life [1] [min] | half-life (in vitro [2]) [min] | half-life (in vitro [3]) [min] | also measured
1 | COC(=O)Nc1ccc2c(c1)sc1ccc(S(=O)(=O)N[C@@H](C(=O)O)C(C)C)cc12 | > 25000 | > 30 | > 30 | > 30 | –
2 | COC(=O)Nc1ccc2sc3cc(S(=O)(=O)N[C@@H](C(=O)O)C(C)C)ccc3c2c1 | 1.22 | > 30 | > 30 | > 30 | Vd [5]: 3.7 L/kg; clearance [6]: 59.9 mL/min/kg; half-life [7]: 276 min; Cmax [8]: 738 ng/mL; bioavailability [9]: 19%
3 | CC(C)[C@H](NS(=O)(=O)c1ccc2c(c1)oc1cc(NC(=O)NCCc3cccs3)ccc12)C(=O)O | 187 | > 30 | > 30 | > 30 | –
4 | CCNC(=O)Nc1ccc2c(c1)sc1cc(S(=O)(=O)N[C@H](C(=O)O)C(C)C)ccc12 | 809 | > 30 | > 30 | > 30 | –
5 | COC(=O)Nc1ccc2c(c1)oc1cc(S(=O)(=O)N[C@@H](C(=O)O)C(C)C)ccc12 | 215 | > 30 | > 30 | > 30 | –
6 | CC(C)[C@H](NS(=O)(=O)c1ccc2c(c1)sc1cc(NC(=O)Nc3ccccc3)ccc12)C(=O)O | 269 | > 30 | > 30 | > 30 | –
7 | CC(C)[C@H](NS(=O)(=O)c1ccc2c(c1)sc1ccc(NS(C)(=O)=O)cc12)C(=O)O | 1140 | – | – | – | –
8 | COC(=O)Nc1ccc2c(c1)sc1cc(S(=O)(=O)N[C@H](C(=O)O)C(C)C)ccc12 | 632 | > 30 | > 30 | > 30 | –

Second part, led by results:

Row | IC50 (Collagenase 3) [nM] | half-life [1] [min] | half-life (in vitro [2]) [min] | half-life (in vitro [3]) [min] | Compound | also measured
9 | 60000 | – | – | – | CC(C)[C@H](NS(=O)(=O)c1ccc2sc3ccccc3c2c1)C(=O)O | –
10 | – | > 30 | > 30 | > 30 | COC(=O)Nc1ccc2oc3cc(S(=O)(=O)N[C@H](C(=O)O)C(C)C)ccc3c2c1 | IC50 [4]: 2 nM
11 | 505 | > 30 | > 30 | > 30 | COC(=O)Nc1ccc2c(c1)oc1cc(S(=O)(=O)N[C@H](C(=O)O)C(C)C)ccc12 | –
12 | 235 | > 30 | > 30 | > 30 | Cc1ccc(OC(=O)Nc2ccc3c(c2)sc2cc(S(=O)(=O)N[C@H](C(=O)O)C(C)C)ccc23)cc1 | –
13 | > 25000 | – | – | – | CC(C)[C@@H](NS(=O)(=O)c1ccc2sc3cc(NS(C)(=O)=O)ccc3c2c1)C(=O)O | –
14 | 1350 | > 30 | > 30 | > 30 | COC(=O)Nc1ccc2c(c1)sc1cc(S(=O)(=O)N[C@@H](C(=O)O)C(C)C)ccc12 | –
15 | – | > 30 | > 30 | > 30 | CCOC(=O)Nc1ccc2c(c1)sc1cc(S(=O)(=O)N[C@@H](C(=O)O)C(C)C)ccc12 | –
16 | 13800 | – | – | – | CC(C)[C@@H](NS(=O)(=O)c1ccc2sc3ccccc3c2c1)C(=O)O | –
17 | 334 | > 30 | > 30 | > 30 | CC(C)COC(=O)Nc1ccc2c(c1)sc1cc(S(=O)(=O)N[C@H](C(=O)O)C(C)C)ccc12 | –
18 | > 25000 | – | – | – | CC(C)[C@H](NS(=O)(=O)c1ccc2sc3cc(NS(C)(=O)=O)ccc3c2c1)C(=O)O | –
19 | > 25000 | > 30 | > 30 | > 30 | COC(=O)Nc1ccc2c(c1)sc1ccc(S(=O)(=O)N[C@H](C(=O)O)C(C)C)cc12 | –

Reference: ChEMBL document CHEMBL1152446, “Identification of an orally efficacious matrix metalloprotease 12 inhibitor for potential treatment of asthma” (J Med Chem, 2009)
